PubChem BioAssay AID330 (DTP/NCI, 2004)
Values joined by “and” are separate entries in the source; they are usually repeats but may differ in a detail not shown here. Equal values may be shown once. Toxic doses and inconclusive results are not listed.

Test system: P388 leukemia ip, CD2F1 mice, survival T/C
Assay: NCI In Vivo Anticancer Drug Screen. Data for tumor model P388 Leukemia (intraperitoneal) in CD2F1 (CDF1) mice
Details: endpoint: median survival time, higher = longer survival
Procedure: The antitumor activity of compounds was measured in mice bearing transplantable tumors. Survival or tumor size were measured and the results are expressed as the measurement made in the treated group (T) divided by the measurement made in the vehicle treated control group (C). The tumor model used in this assay is P388 Leukemia (intraperitoneal) in CD2F1 (CDF1) mice

[1] = dose: 60.0 mg/kg/injection, schedule: Q01DX005 (ip), vehicle: saline with Tween-80
[2] = dose: 120.0 mg/kg/injection, schedule: Q01DX005 (ip), vehicle: saline with Tween-80
[3] = dose: 240.0 mg/kg/injection, schedule: Q01DX005 (ip), vehicle: saline with Tween-80
[4] = dose: 50.0 mg/kg/injection, schedule: Q01DX009 (ip), vehicle: Klucel (hydroxypropylcellulose) (HPC)
[5] = dose: 100.0 mg/kg/injection, schedule: Q01DX009 (ip), vehicle: Klucel (hydroxypropylcellulose) (HPC)
[6] = dose: 200.0 mg/kg/injection, schedule: Q01DX009 (ip), vehicle: Klucel (hydroxypropylcellulose) (HPC)
[7] = dose: 6.25 mg/kg/injection, schedule: Q01DX005 (ip), vehicle: Klucel (hydroxypropylcellulose) (HPC)
[8] = dose: 60.0 mg/kg/injection, schedule: Q01DX005 (ip), vehicle: Klucel (hydroxypropylcellulose) (HPC)
[9] = dose: 120.0 mg/kg/injection, schedule: Q01DX005 (ip), vehicle: Klucel (hydroxypropylcellulose) (HPC)
[10] = dose: 240.0 mg/kg/injection, schedule: Q01DX005 (ip), vehicle: Klucel (hydroxypropylcellulose) (HPC)
[11] = dose: 50.0 mg/kg/injection, schedule: Q01DX005 (ip), vehicle: saline with Tween-80
[12] = dose: 100.0 mg/kg/injection, schedule: Q01DX005 (ip), vehicle: saline with Tween-80
[13] = dose: 50.0 mg/kg/injection, schedule: Q01DX009 (ip), vehicle: saline with Tween-80
[14] = dose: 100.0 mg/kg/injection, schedule: Q01DX009 (ip), vehicle: saline with Tween-80
[15] = dose: 200.0 mg/kg/injection, schedule: Q01DX009 (ip), vehicle: saline with Tween-80

CN(O)C(=O)CCCCCCCCC(=O)N(C)O
T/C [1]: 103 % of control | T/C [2]: 105 % of control | T/C [3]: 114 % of control

Cc1nnc(Cc2ccccc2)c2n[nH]c(C)c12
T/C [4]: 98 % of control | T/C [5]: 103 % of control | T/C [6]: 95 % of control

NC(=S)NN=C(C1CC1)C1CC1
T/C [7]: 98 % of control | T/C (dose: 12.5 mg/kg/injection, schedule: Q01DX005 (ip), vehicle: Klucel (hydroxypropylcellulose) (HPC)): 97 % of control

Cc1cc[n+]2cc(-c3ccc(/C=N/N=C(N)N)cc3)n(C)c2c1
T/C (dose: 1.56 mg/kg/injection, schedule: Q01DX005 (ip), vehicle: Klucel (hydroxypropylcellulose) (HPC)): 100 % of control | T/C (dose: 3.12 mg/kg/injection, schedule: Q01DX005 (ip), vehicle: Klucel (hydroxypropylcellulose) (HPC)): 103 % of control | T/C [7]: 102 % of control and 107 % of control

CC(C)NCCCNc1c2ccccc2nc2cccc([N+](=O)[O-])c12
T/C (dose: 0.09 mg/kg/injection, schedule: Q01DX009 (ip), vehicle: saline): 100 % of control and 86 % of control | T/C (dose: 0.19 mg/kg/injection, schedule: Q01DX009 (ip), vehicle: saline): 100 % of control and 97 % of control | T/C (dose: 0.39 mg/kg/injection, schedule: Q01DX009 (ip), vehicle: saline): 100 % of control and 106 % of control and 92 % of control | T/C (dose: 0.79 mg/kg/injection, schedule: Q01DX009 (ip), vehicle: saline): 105 % of control and 123 % of control and 90 % of control | T/C (dose: 1.56 mg/kg/injection, schedule: Q01DX009 (ip), vehicle: saline): 109 % of control

c1ccc2c3c([nH]c2c1)CCN1CCN(CCc2ccncc2)CC31 (stereo unspecified)
T/C (dose: 100.0 mg/kg/injection, schedule: Q04DX002 (ip), vehicle: Klucel (hydroxypropylcellulose) (HPC)): 100 % of control | T/C (dose: 200.0 mg/kg/injection, schedule: Q04DX002 (ip), vehicle: Klucel (hydroxypropylcellulose) (HPC)): 101 % of control | T/C (dose: 400.0 mg/kg/injection, schedule: Q04DX002 (ip), vehicle: Klucel (hydroxypropylcellulose) (HPC)): 96 % of control

Cc1ccc(S(=O)(=O)N2OC2c2ccccc2C)cc1 (stereo unspecified)
T/C [4]: 107 % of control | T/C [5]: 106 % of control | T/C [6]: 103 % of control

COC(=O)c1cc([O-])c2sc(C)c(C)[n+]2n1
T/C [1]: 100 % of control | T/C [2]: 100 % of control | T/C [3]: 100 % of control

O=[N+]([O-])c1cc(C(F)(F)F)cc([N+](=O)[O-])c1Nc1ccccc1
T/C (dose: 30.0 mg/kg/injection, schedule: Q01DX005 (ip), vehicle: Klucel (hydroxypropylcellulose) (HPC)): 102 % of control | T/C [8]: 107 % of control | T/C [9]: 104 % of control | T/C [10]: 103 % of control

CN1CCC(c2ccccc2)(C(O)(c2ccccc2)c2ccccc2)CC1
T/C (dose: 12.5 mg/kg/injection, schedule: Q01DX005 (ip), vehicle: saline with Tween-80): 90 % of control | T/C (dose: 25.0 mg/kg/injection, schedule: Q01DX005 (ip), vehicle: saline with Tween-80): 100 % of control | T/C [11]: 100 % of control and 111 % of control | T/C [12]: 107 % of control

CC(C)(OC(=O)c1ccc([N+](=O)[O-])cc1)C(=O)O
T/C [4]: 99 % of control | T/C [5]: 98 % of control | T/C [6]: 98 % of control

CC(=O)OC1CCC2(C)C(=CCC3C2CCC2(C)C(OC(C)=O)/C(=C/C(=O)O)CC32)C1 (stereo unspecified)
T/C (dose: 25.0 mg/kg/injection, schedule: Q01DX009 (ip), vehicle: Klucel (hydroxypropylcellulose) (HPC)): 94 % of control | T/C [4]: 97 % of control | T/C [5]: 97 % of control | T/C [6]: 90 % of control

CS/C(=C(\C#N)C(N)=O)N1CC1
T/C (dose: 25.0 mg/kg/injection, schedule: Q04DX002 (ip), vehicle: DMSO): 94 % of control | T/C (dose: 50.0 mg/kg/injection, schedule: Q04DX002 (ip), vehicle: DMSO): 100 % of control | T/C (dose: 100.0 mg/kg/injection, schedule: Q04DX002 (ip), vehicle: DMSO): 102 % of control and 95 % of control | T/C (dose: 200.0 mg/kg/injection, schedule: Q04DX002 (ip), vehicle: DMSO): 100 % of control

CCN(CC)CCOCc1cccc2c(=O)cc(-c3ccccc3)oc12
T/C (dose: 50.0 mg/kg/injection, schedule: Q01DX009 (ip), vehicle: saline): 105 % of control | T/C (dose: 100.0 mg/kg/injection, schedule: Q01DX009 (ip), vehicle: saline): 101 % of control

COc1cccc2c1C(=O)c1c(O)c3c(c(O)c1C2=O)C[C@@](O)(/C(C)=N\O)C[C@@H]3OC1CC(N)C(O)C(C)O1 (stereo partly specified)
T/C (dose: 3.13 mg/kg/injection, schedule: Q01DX009 (ip), vehicle: water): 154 % of control | T/C (dose: 6.25 mg/kg/injection, schedule: Q01DX009 (ip), vehicle: water): 165 % of control | T/C (dose: 6.25 mg/kg/injection, schedule: Q04DX003 (ip), vehicle: water): 115 % of control and 124 % of control | T/C (dose: 12.5 mg/kg/injection, schedule: Q01DX009 (ip), vehicle: water): 183 % of control | T/C (dose: 12.5 mg/kg/injection, schedule: Q04DX003 (ip), vehicle: water): 116 % of control and 117 % of control | T/C (dose: 25.0 mg/kg/injection, schedule: Q01DX009 (ip), vehicle: water): 100 % of control | T/C (dose: 25.0 mg/kg/injection, schedule: Q04DX003 (ip), vehicle: water): 123 % of control | T/C (dose: 100.0 mg/kg/injection, schedule: Q04DX003 (ip), vehicle: water): 119 % of control | T/C (dose: 200.0 mg/kg/injection, schedule: Q04DX003 (ip), vehicle: water): 101 % of control

Cc1ccc(C(=N)c2ccccc2Cc2cccc3ccccc23)c(C)c1
T/C [13]: 92 % of control | T/C [14]: 94 % of control | T/C [15]: 96 % of control

C/C(=N/NC(=O)c1ccccc1)c1ccc(Cl)cc1Cl
T/C (dose: 12.5 mg/kg/injection, schedule: Q01DX009 (ip), vehicle: Klucel (hydroxypropylcellulose) (HPC)): 90 % of control

NNC(=O)CN(CC(=O)NN)CC(=O)NN
T/C (dose: 50.0 mg/kg/injection, schedule: Q01DX005 (ip), vehicle: water): 99 % of control | T/C (dose: 100.0 mg/kg/injection, schedule: Q01DX005 (ip), vehicle: water): 101 % of control | T/C (dose: 200.0 mg/kg/injection, schedule: Q01DX005 (ip), vehicle: water): 110 % of control

CCC[CH2][Sn]([CH2]CCC)[CH2]CCC.CCC[CH2][Sn]([CH2]CCC)[CH2]CCC
T/C (dose: 1.56 mg/kg/injection, schedule: Q04DX002 (ip), vehicle: saline with Tween-80): 103 % of control | T/C (dose: 3.12 mg/kg/injection, schedule: Q04DX002 (ip), vehicle: saline with Tween-80): 117 % of control | T/C (dose: 6.25 mg/kg/injection, schedule: Q04DX002 (ip), vehicle: saline with Tween-80): 103 % of control and 109 % of control | T/C (dose: 100.0 mg/kg/injection, schedule: Q04DX003 (ip), vehicle: Klucel (hydroxypropylcellulose) (HPC)): 118 % of control

CC(C)(C)C(=O)Nc1ccc2c(c1)C(=O)c1ccccc1C2=O
T/C [11]: 100 % of control | T/C [12]: 87 % of control | T/C (dose: 200.0 mg/kg/injection, schedule: Q01DX005 (ip), vehicle: saline with Tween-80): 89 % of control

CN(NC1OC(=O)c2ccccc21)c1ccc(C(F)(F)F)cc1[N+](=O)[O-] (stereo unspecified)
T/C [8]: 95 % of control | T/C [9]: 98 % of control | T/C [10]: 100 % of control

C=CCC1(C(C)C(O)c2cc(OC)c(OC)c(OC)c2)CC(OC)C=CC1=O (stereo unspecified)
T/C (dose: 4.0 mg/kg/injection, schedule: Q01DX009 (ip), vehicle: olive oil, sesame oil, peanut oil): 116 % of control | T/C (dose: 8.0 mg/kg/injection, schedule: Q01DX009 (ip), vehicle: olive oil, sesame oil, peanut oil): 111 % of control | T/C (dose: 16.0 mg/kg/injection, schedule: Q01DX009 (ip), vehicle: olive oil, sesame oil, peanut oil): 111 % of control

CCC1(c2ccccc2)SC(=O)NC1=O (stereo unspecified)
T/C [13]: 91 % of control | T/C [14]: 91 % of control | T/C [15]: 98 % of control

CCOC(=O)c1c(C#N)c2ccccc2n1O
T/C (dose: 25.0 mg/kg/injection, schedule: Q01DX001 (ip), vehicle: distilled water + Tween-80): 110 % of control | T/C (dose: 50.0 mg/kg/injection, schedule: Q01DX001 (ip), vehicle: distilled water + Tween-80): 106 % of control | T/C (dose: 100.0 mg/kg/injection, schedule: Q01DX001 (ip), vehicle: distilled water + Tween-80): 110 % of control | T/C (dose: 100.0 mg/kg/injection, schedule: Q01DX001 (ip), vehicle: saline with Tween-80): 97 % of control | T/C (dose: 400.0 mg/kg/injection, schedule: Q01DX001 (ip), vehicle: saline with Tween-80): 99 % of control

CCOC(=O)C[n+]1ccc2cc(OC)c(OC)cc2c1Cc1ccc(OC)c(OC)c1
T/C [13]: 102 % of control | T/C [14]: 90 % of control | T/C [15]: 90 % of control
